Experimental data published in US11517019B2, “Microbicidal system” (priority 2020, dated 2022).
“Also recorded” adds a separate entry of the source. Read-outs that look alike come from different tables or passages of the source.

Tests used:
Lp1 = format: cell-based, Legionella pneumophila; settings: ~9×10^6 CFU/mL
[1] = test system: gram-positive and gram-negative bacteria; settings: cited from earlier work
[2] = ambient temperature; third-party reports; cited from earlier work
[3] = Dissolution of CX powder in 140° F. municipal water
[4] = 50 mg CX powder in 1 liter 140° F. (60° C.) municipal water

[H]/N=C(\N/C(=N/[H])NCCCCCCNC(=N)NC(=N)Nc1ccc(Cl)cc1)Nc1ccc(Cl)cc1 [CX, N,N″″1,6-Hexanediylbis[N-(4-chlorophenyl) (imidodicarbonimidic diamide)]]
cell count reduction (Lp1; 4.5 g solid CX in 800 mL, first 30 seconds): ~0.3 log
cell count reduction (Lp1; 12 g solid CX in 800 mL, 2-minute reaction period): ~4.8 log
time of uptake into bacterial cells ([1]; aqueously dissolved form): ≤ 20 s
persistence of activity ([1]; bound to proteins on skin, mucosa, mouth tissue and teeth): ≥ 48 h
time to kill virtually all gram-positive and gram-negative bacteria ([1]; in vitro): ≤ 30 s
solubility in water [2]: ca. 80 mg/100 mL
saturation level of CX approached [3, 4]: ~1 mg/L
time to approach saturation level [3, 4]: ≤ 10 s
portion of the powder dissolved ([3]; 50 mg in 1 liter 140° F. water, up to 20 minutes of exposure): under 2 weight percent
chloroaniline (CA) isomers detectable in the water ([3]; CX in 140° F. water): no isomer of CA was detectable; also recorded: No chloroani line impurities were detectable
